Test results as given in ChEMBL document CHEMBL5131522, “3-Pyrrolidine-indole Derivatives as 5-HT2-Selective Receptor Modulators for the Potential Treatment of Mental Disorders” (ACS Med Chem Lett, 2022).

These compounds were tested against 5-hydroxytryptamine receptor 2A (Homo sapiens, UniProt P28223) (assay: Agonist activity at human 5-HT2A receptor expressed in cells assessed as increase in calcium mobilization by Calcium-6 dye based FLIPR assay).
Assay type: functional, cell-based

Sequence of 5-hydroxytryptamine receptor 2A (P28223 whole entry): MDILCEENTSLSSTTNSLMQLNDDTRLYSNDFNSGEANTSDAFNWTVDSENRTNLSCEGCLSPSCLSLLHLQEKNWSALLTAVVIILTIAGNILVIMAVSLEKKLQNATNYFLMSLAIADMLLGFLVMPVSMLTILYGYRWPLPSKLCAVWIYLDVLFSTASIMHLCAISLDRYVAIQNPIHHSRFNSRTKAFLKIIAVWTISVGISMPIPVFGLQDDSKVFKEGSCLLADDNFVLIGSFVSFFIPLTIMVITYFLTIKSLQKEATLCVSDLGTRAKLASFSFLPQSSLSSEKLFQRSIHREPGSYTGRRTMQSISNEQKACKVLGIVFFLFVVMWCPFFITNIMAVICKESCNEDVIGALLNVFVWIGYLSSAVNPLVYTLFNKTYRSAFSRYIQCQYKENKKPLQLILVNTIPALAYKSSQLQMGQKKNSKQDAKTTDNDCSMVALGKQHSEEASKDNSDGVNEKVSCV

`Oc1cccc2[nH]cc(C[C@H]3CCCN3)c12` and `[2H]C([2H])(c1c[nH]c2cccc(O)c12)[C@@H]1CCCN1` cannot be ordered by EC50: under 1000 nM for the first, under 1000 nM for the second.

`[2H]C([2H])(c1c[nH]c2cccc(OC)c12)[C@H]1CCCN1C([2H])([2H])[2H]` and `[2H]C([2H])(c1c[nH]c2cccc(O)c12)[C@H]1CCCN1C([2H])([2H])[2H]` cannot be ordered by EC50: under 1000 nM for the first, under 1000 nM for the second.

Going from `[2H]C([2H])(c1c[nH]c2cccc(F)c12)[C@H]1CCCN1` to `[2H]C([2H])(c1c[nH]c2cccc(F)c12)[C@H]1CCCN1C([2H])([2H])[2H]`, the EC50 falls from 1000 nM to under 1000 nM.

`[2H]C([2H])([2H])N1CCC[C@H]1Cc1c[nH]c2cccc(OCc3ccccc3)c12` and `[2H]C([2H])([2H])N1CCC[C@@H]1Cc1c[nH]c2cccc(O)c12` cannot be ordered by EC50: under 10000 nM for the first, under 1000 nM for the second.

`[2H]C([2H])([2H])N1CCC[C@@H]1Cc1c[nH]c2cccc(F)c12` and `CN1CCC[C@@H]1Cc1c[nH]c2cccc(O)c12` cannot be ordered by EC50: under 1000 nM for the first, under 1000 nM for the second.
